The record followed here is patent publication US11059830B2, “Compounds that participate in cooperative binding and uses thereof” (Revolution Medicines, Inc., priority 2015, dated 2021).

A word on the Kd: it is a measure of binding affinity in units of concentration. The koff is the rate constant with which the complex falls apart. Read a high koff as a short-lived complex.

Molecules are shown by their SMILES.

Experiment [1] deals with T1, FKBP12 (Homo sapiens (Human), UniProt P62942). The experiment is described as follows: AlphaLISA FKBP12 binding: inhibition of binding of biotinylated FK506 to FLAG tagged FKBP12. The note with it: read-out: Binding affinity to FKBP12 (by displacement of FK506). An excerpt: The binding of compounds of the invention to FKBP12 can be determined using the following protocol.
This protocol utilizes Perkin Elmers AlphaLISA technology platform to detect FKBP binders by measuring the inhibition of binding of biotinylated FK506 to FLAG tagged FKBP12.
10×TBST Buffer (Boston BioProducts IBB-181), Biotinylated FK506 (in-house), FLAG tagged FKBP (in-house); anti-FLAG Donor beads (Perkin Elmer AS103) and Streptavidin Acceptor beads (Perkin Elmer AL125); Compounds in DMSO (in-house), FK506.
Experimental Protocol/Description of Assay: Add 20 uL of 12.5 nM FKBP-FLAG working stock to each well of the 96-well plate. Add 1 uL of test compound (100% DMSO) to each well of the plate using the Janus MTD head and P20 tips (except control wells). Add 1 uL of DMSO to negative control wells and 1 uL of 50 uM FK506 solution to positive control wells. In the dark, add 20 uL of combined Donor/Acceptor beads to each well. Incubate in the dark for 30 minutes at room temperature. In the dark, add 10 uL of 5 nM biotinylated FK506 working stock to each well. Incubate in the dark for 60 minutes at room temperature. Protect plate from light until reading on Biotek Synergy2 Plate Reader; Alphalisa 96-well protocol (680 excitation/615 emission).
For orientation: In Alpha technology, singlet oxygen from a donor bead excites a nearby acceptor bead.

The target of experiment [2] is T1, FKBP12. The experiment is described as follows: SPR binding of compound (analyte) to immobilized FKBP12 (Example 7). The note with it: 25° C., 12×HIS tagged FKBP12 immobilized on NTA chip; read-out: SPR affinity to FKBP12: KD. The method, then: This protocol utilizes Surface Plasmon Resonance (SPR) as a method to determine kinetics (KD, Ka, Kd) for the binding of compound (analyte) to immobilized FKBP12 (ligand).
Compound in 100% DMSO (in-house), 10×HBS-P+ buffer (GE Healthcare BR-1006-71), Assay buffer (1×HBS-P+ buffer, 1% DMSO), 12×HIS tagged FKBP12 (in-house).
(§1) Experiments are performed at 25° C. Stock solution of 12×HIS tagged FKBP12 is diluted to 100 nM in assay buffer (1% DMSO final). Approximately 500-600 RU of FKBP12 is immobilized on one of two flow cells of an activated NTA chip. The second flow cell is not activated as a reference for non-specific interaction of the analyte to the sensor chip. Various concentrations of compound (1 nM-1 μM range), serially diluted into the same assay buffer (1% DMSO final), are injected onto the FKBP12 surface and reference surface at a flow rate of 10 μl/min. The surface is regenerated between analyte injections with 350 mM EDTA.
(§2) The BiaEvaluation software program is used for data fitting. All data is reference subtracted against both the reference flow cell and a buffer injection. For kinetic analyses, data is locally fit to a 1:1 interaction model.

In a further experiment the test system is HeLa-FKBP12 cells. The experiment in a line: Biosensor cell permeability assay (FKBP destabilizing mutant, whole cell). The format is cell-based. Conditions: 72 hrs. The protocol: Cell permeability of compounds can be determined using the following protocol.
This protocol utilizes a modified FKBP or cyclophilin destabilizing mutant to determine the bioactivity of FKBP binding compounds or cyclophilin binding compounds in whole cell assay.
DMEM, DMEM without Phenol Red, 10% FBS, 1× Sodium Pyruvate, 1× Glutamax. Add 125 ul of media with compound per well.
Experimental Protocol/Description of Assay: Plate HeLa-FKBP12 cells (for FKBP binding compounds) or HeLa-CyclophilinA cells (for cyclophilin binding compounds) and seed overnight at 5k/well (approximately −18 hrs.). Using a multi-channel pipet, take out the old media and add ˜125 ul of new media with compounds. Compounds are diluted using DMEM without Phenol Red, 10% FBS, 1× Sodium Pyruvate, lx Glutamax. Add 125 ul of media with compound per well. Cells are treated with compounds at concentration: 30, 10, 3.33, 1.11, 0.37, 0.12, 0.04 and 0.013 uM. Time points are taken at 72 hrs and plate read using plate reader with excitation/emission: 575/620.
Cell binding/permeability is calculated in fold-change (Total RFU of treated samples/total RFU of DMSO treated samples or total RFU above background (Total RFU minus total RFU of DMSO treated samples).

Experiment [3] has as its target T1, FKBP12. The experiment is described as follows: SPR kinetics of Compound 2 and Compound 6 binding to immobilized FKBP12 (Example 8). The note with it: compound to immobilized FKBP12, 25° C. The protocol:
This protocol utilizes Surface Plasmon Resonance (SPR) as a method to determine kinetics (KD, Ka, Kd) for the binding of Compound 2 and Compound 6 (analyte) to immobilized FKBP12 (ligand).
Compound 2 and Compound 6 in 100% DMSO (in-house), 10×HBS-P+ buffer (GE Healthcare BR-1006-71), Assay buffer (1×HBS-P+ buffer, 1% DMSO), 12×HIS tagged FKBP12 (in-house).
as §1, with “Compound 2 or Compound 6” for “compound”
as §2
In general terms: Surface plasmon resonance follows binding to a sensor surface in real time, without labels.

Experiment [4] has as its target CEP25011.4 (residues 2134-2231) (Homo sapiens (Human), UniProt P62942+Q9BV73). The experiment is described as follows: ITC binding of FKBP12-compound binary complex to CEP250. The protocol: (§3) This protocol utilizes Isothermal Titration Calorimetry (ITC) to directly measure the heat change associated with binding of FKBP12-Compound 2 and FKBP12-Compound 6 binary complexes to CEP250. Measurement of the heat change allows accurate determination of association constants (Ka), reaction stoichiometry (N), and the change in binding enthalpy (ΔH).
(§4) Compound 2 and Compound 6 in 100% DMSO (in-house), Protein Buffer (10 mM HEPES, pH 7.5, 75 mM NaCl, 0.5 mM TCEP), assay buffer (protein buffer+1% DMSO), FKBP12 (in-house), CEP25029.4 (residues 1982-2231) and CEP25011.4 (residues 2134-2231) (in-house).
(§5) MicroCal™ ITC200 (GE Healthcare) Experimental Protocol: FKBP12 stock solution was diluted to 10 μM in assay buffer (1% DMSO final). Compound was added to FKBP12 to 20 μM (1% DMSO final), and binary complex was filled into the reaction cell of the ITC device after 5-10 min pre-incubation time. CEP250 protein stocks were diluted to 50 μM in assay buffer and supplemented with 20 μM compound (1% DMSO final) before being filled into the injection syringe. A control experiment in the absence of compound was also run to determine the heat associated with operational artifacts and the dilution of titrant as it was injected from the syringe into the reaction cell.

In experiment [5] the target is CEP25029.4 (residues 1982-2231) (Homo sapiens (Human), UniProt P62942+Q9BV73). Described as above. The protocol: as §3, §4, §5
CEP25029.4 (residues 1982-2231), sequence (Q9BV73 1982-2231): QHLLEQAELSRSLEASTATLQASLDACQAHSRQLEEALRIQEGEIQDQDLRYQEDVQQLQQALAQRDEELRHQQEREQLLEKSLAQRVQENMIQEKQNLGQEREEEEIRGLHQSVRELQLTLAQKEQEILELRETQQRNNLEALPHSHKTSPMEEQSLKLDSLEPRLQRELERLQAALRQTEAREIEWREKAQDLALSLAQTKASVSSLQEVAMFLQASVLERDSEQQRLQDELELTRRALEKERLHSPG
CEP25029.4 (residues 1982-2231), sequence (P62942 whole entry, the tested form may be a part): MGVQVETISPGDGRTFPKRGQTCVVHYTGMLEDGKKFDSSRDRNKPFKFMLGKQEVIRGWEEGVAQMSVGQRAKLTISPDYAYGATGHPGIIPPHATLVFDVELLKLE

T1 sequence (P62942 whole entry): as the sequence (P62942 whole entry, the tested form may be a part) above
CEP25011.4 (residues 2134-2231), sequence (Q9BV73 2134-2231): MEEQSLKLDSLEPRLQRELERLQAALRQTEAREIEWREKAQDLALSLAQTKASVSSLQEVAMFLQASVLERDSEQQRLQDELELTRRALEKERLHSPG
CEP25011.4 (residues 2134-2231), sequence (P62942 whole entry, the tested form may be a part): as the sequence (P62942 whole entry, the tested form may be a part) above

In the case of `CC[C@H](Cc1ccccc1)[C@@H]1/C=C/C/C=C/C[C@@H](C)[C@H](O)[C@@H](C)[C@@H]2CC[C@@H](C)C(=O)C(O)(O2)C(=O)N2CCC[C@H]2C(=O)O1` [Compound 4], the IC50 on FKBP12 [1] came to 4.8 nM. Also, on FKBP12 [2], the Kd came to 23.1 nM.
On to `CC[C@H](Cc1ccccc1)[C@@H]1/C=C/C/C=C/C[C@@H](C)C(=O)[C@@H](C)[C@@H]2CC[C@@H](C)[C@@](O)(O2)C(=O)C(=O)N2CCCC[C@H]2C(=O)O1` [Compound 9], for which the IC50 at FKBP12 [1] was 785 nM; in the experiment with HeLa-FKBP12 cells it was greater than 1000 nM.
For `CC[C@H](Cc1cccc(O)c1)[C@@H]1/C=C/C/C=C/C[C@@H](C)[C@H](O)[C@@H](C)[C@@H]2CC[C@@H](C)C(=O)[C@@](O)(O2)C(=O)N2CCCC[C@H]2C(=O)O1` [Compound 7], the values for the IC50 at FKBP12 [1] and in the experiment on HeLa-FKBP12 cells were 0.95 nM and less than 1000 nM, respectively.
Consider `CC[C@H](Cc1ccccc1)[C@@H]1CCCCCC[C@@H](C)[C@H](O)[C@@H](C)[C@@H]2CC[C@@H](C)C(=O)C(O)(O2)C(=O)N2CCCC[C@H]2C(=O)O1` [Compound 6, (2S)-1-((4R,7S)-7-((2R,3S,4R,11 S,12R)-12-benzyl-3,11-dihydroxy-4-methyltetradecan-2-yl)-2-hydroxy-4-methyl-3-oxooxepane-2-carbonyl)piperidine-2-carboxylic acid C-11 lactone], for which the koff on FKBP12 [3] came out at 0.0088 s⁻¹. On FKBP12 [3] (read-out: Ka), the kon turned out to be 567000 M⁻¹ s⁻¹. Besides, the Kd in experiment [4] was determined as 80 nM; in experiment [5], 360 nM. The ΔH in experiment [4] (ITC, FKBP12 10 μM in cell, CEP25011.4 68 μM in syringe, ligand 20 μM, 298 K) is -11.42 kcal/mol; in experiment [5] (ITC, FKBP12 10 μM in cell, CEP25029.4 118 μM in syringe, ligand 20 μM, 298 K) it was -13.98 kcal/mol. Moreover, the ΔG in experiment [4] (ITC, FKBP12 10 μM, CEP25011.4 68 μM, ligand 20 μM, 298 K, ΔG = −RT ln Ka) is -9.646 kcal/mol; in experiment [5] (ITC, FKBP12 10 μM, CEP25029.4 118 μM, ligand 20 μM, 298 K, ΔG = −RT ln Ka), -8.781 kcal/mol. In addition, the “−T*ΔS” value in experiment [4] (ITC, FKBP12 10 μM, CEP25011.4 68 μM, ligand 20 μM, 298 K, −TΔS = ΔG − ΔH) came out at 1.77 kcal/mol; in experiment [5] (ITC, FKBP12 10 μM, CEP25029.4 118 μM, ligand 20 μM, 298 K, −TΔS = ΔG − ΔH) it was 5.194 kcal/mol.
In the case of `CC[C@H](Cc1ccccc1)[C@@H]1/C=C/C=C/CC(=O)[C@@H](C)[C@H](O)[C@@H](C)[C@@H]2CC[C@@H](C)C(=O)C(O)(O2)C(=O)N2CCCC[C@H]2C(=O)O1` [Compound 5], the IC50 at FKBP12 [1] was found to be 18.8 nM. Besides, the Kd on FKBP12 [2] turned out to be 7 nM.
Consider `CCC(Cc1ccccc1)C1/C=C/C/C=C/CC(C)C(O)C(C)C2CCC(C)C(O)(CC(=O)N3CCCCC3C(=O)O1)O2` (stereo not shown) [Compound 1], for which the IC50 at FKBP12 [1] stood at 355 nM. The equilibrium dissociation constant (Kd) on FKBP12 [2] came to 71.5 nM.
For the compound `CC[C@H](Cc1ccccc1)[C@@H]1CCCCCC(=O)[C@@H](C)[C@H](O)[C@@H](C)[C@@H]2CC[C@@H](C)C(O)(O2)C(=O)C(=O)N2CCCC[C@H]2C(=O)O1` [Compound 10, (S)-1-(2-((2R,3R,6S)-6-((2R,3R,4S,6E,9E,11R,12R)-12-benzyl-3,11-dihydroxy-4-methyl-5-oxotetradeca-6,9-dien-2-yl)-2-hydroxy-3-methyltetrahydro-2H-pyran-2-yl)-2-oxoacetyl)piperidine-2-carboxylic acid C-11 lactone], on FKBP12 [1], the IC50 came out at 0.21 nM.
`CC[C@H](Cc1cccc(O)c1)[C@@H]1/C=C/C/C=C/C[C@@H](C)[C@H](O)[C@@H](C)[C@@H]2CC[C@@H](C)[C@@](O)(O2)C(=O)C(=O)N2CCCC[C@H]2C(=O)O1` [Compound 8]: the IC50 was 1.1 nM at FKBP12 [1] and less than 1000 nM with HeLa-FKBP12 cells.
As to `CC[C@H](Cc1ccccc1)[C@@H]1/C=C/C/C=C/C(=O)[C@@H](C)[C@H](O)[C@@H](C)[C@@H]2CC[C@@H](C)[C@@](O)(O2)C(=O)C(=O)N2CCCC[C@H]2C(=O)O1` [Compound 3], on FKBP12 [1], the IC50 was 0.34 nM. The Kd at FKBP12 [2] stood at 1.3 nM.
